From patent US8288390B2, “Benzofuran derivatives” (Takeda Pharmaceutical Company Limited, priority 2009, dated 2012)
Counter-ions that a name gives are not always drawn.

Columns and labels:
rat mixed glial culture = assay: Activity of promoting neuronal neogenesis in rat mixed glial culture; type: cell-based; conditions: compound 1 μM + rhIGF-1 100 ng/ml, 3 days culture, absorbance at 450 nm (class III beta-tubulin antibody), control rhIGF-1 only = 100%; for activity at 1 µM: Rattus norvegicus, 72 h, read-out: Increase Ratio of the Absorbance (% control)
Protocol: From a three-day old SD rat, hippocampus and cerebral cortex were removed. By using a kit of dispersion liquid for neuronal cells (MB-X9901, manufactured by SUMITOMO BAKELITE CO., LTD.), cell suspension was prepared and then seeded on a 96-well plate coated with collagen Type I (4860-010, manufactured by Asahi Techno Glass Co., Ltd.) to 10^5 cells/well. Under the condition of 37° C. and 5% CO2, the cells were cultured for four days in a growth medium (D-MEM/F12 with 10% FBS, comprising PS).
After culturing, the medium was exchanged with a medium for differentiation (D-MEM/F12, comprising PS), added with rhIGF-1 (R&D Systems, 291-G1-250, final concentration of 100 ng/ml) and the compound to 1 μM, followed by further culture for three days. Cultured cells were fixed with 4% paraformaldehyde-PBS (manufactured by MUTO PURE CHEMICALS CO., LTD.) and subjected to membrane penetration using 0.1% Triton X-100 PBS, followed by blocking with Block Ace solution (UK-B80, manufactured by Dainippon Sumitomo Pharma Co., Ltd.). As a primary antibody, Anti-neuron-specific class III beta-tubulin antibody (R&D Systems, MAB1195, clone Tuj-1) was used after 1000× dilution. As a secondary antibody, Anti-Mouse Ig, HRP-Linked F (ab′) 2 Fragment Sheep (Amersham Biosciences, NA9310) was used after 10000× dilution. For washing process, the plate washer (BIO-TEK INSTRUMENTS ELX405) was used. For a chromogenic reaction, the reaction was carried out for 10 minutes using TMB Microwell Peroxidase Substrate System (Kirkegaard & Perry Laboratories, 50-76-00), followed by terminating the reaction according to the addition of 1M phosphoric acid. By using the plate reader (Labsystems Multiskan BICHROMATIC), absorbance at 450 nm was measured.
The absorbance for the case in which no compound is added (i.e., control, rhIGF-1 only) was 100%, and the increase ratio of the absorbance for the compound addition (i.e., compound+rhIGF-1) compared to the control was obtained as % control. Activity of the each compound for promoting neuronal differentiation that is measured according to the above method is summarized in Table 9 and Table 10.

Akt protein = assay: Activity of inhibiting Akt protein degradation in rat mixed glial culture; type: cell-based; conditions: compound 1 μM + rhIGF-1 100 ng/ml, 10 minutes at 37° C.; Akt calibrated with ERK; no addition = 100%, rhIGF-1 only = 0%
Protocol: The mixed glial cells used in the Test example 1 were seeded on a 6-well plate coated with collagen Type I (manufactured by Asahi Techno Glass Co., Ltd.) to 4×10^6 cells/well. Under the condition of 37° C. and 5% CO2, the cells were cultured for four days in a growth medium (D-MEM/F12 with 10% FBS, comprising PS). After that, the medium was exchanged with a serum-free medium (D-MEM/F12, comprising PS) and the cells were subjected to starvation for 4 hours under the condition of 37° C. and 5% CO2.
Next, rhIGF-1 (R&D Systems, 291-G1-250, final concentration 100 ng/ml) and the compound were added to obtain 1 μM and reacted in a water bath incubator at 37° C. for 10 minutes. Culture supernatant was aspirated off, 150 μL of RIPA (50 mM Tris-HCl pH7.5, 5 mM EDTA, 100 mM NaCl, 30 mM NaF, 5 mM sodium diphosphate, 137 mg/l pepstatin A, 2.5 KIU/l aprotinin, 1% NP-40, 6 mM sodium deoxycholate, 1 μM microcystinLR, 1 μM Z-Leu-Leu-Nva-H(aldehyde), 48 μM leupeptin, 96 μM 4-(2-aminoethyl)benzenesulfonyl fluoride-HCl, 1 mM sodium orthovanadate) was added thereto, and the reaction was terminated. After the termination of the reaction, the cell lysate was recovered by using a cell scraper on ice. Finally, the cell lysate was centrifuged for 30 minutes at 15000 rpm and the supernatant was taken as a cell extract.
Proteins were recovered from the cell extract by using trichloroacetic acid, and quantified according to Lowry method. Standard curve was established with bovine serum albumin. Based on the measured values, each cell extract was diluted with RIPA to prepare it in constant concentration (10 μg/lane). SDS-PAGE was carried out under reducing condition using 10% acrylamide (45 mA, 1.5 hours). After transferring to a PVDF membrane (0.13 A, 1 hour), reaction with an antibody was carried out. As a primary antibody, Akt (Cell Signaling, 9272) and ERK (Santa Cruz, sc-94) were used with the dilution ratio of 1000. As a secondary antibody, HRP-labeled anti-rabbit antibody (NA9340V, manufactured by Amersham) was used with the dilution ratio of 12500. Then, using ImmunoStar reagent (291-55203, manufactured by Wako Pure Chemical Industries, Ltd.), X-ray film detection was carried out. Quantification of the results was carried out by using GS-800 Calibrated Densitometer (manufactured by BioRad), and then the band strength was converted into the numerals by multiplying the absorbance originating from bands of Akt and ERK-1&2 by the area. Akt was calibrated with ERK to give the numeral values.
Inhibitory activity on Akt degradation was expressed as inhibition ratio. Specifically, the case in which neither the compound nor rhIGF-1 was added (no addition) is 100% and the case in which only rhIGF-1 was added is 0%, and then with the value measured from compound+rhIGF-1, the inhibition ratio was obtained. Inhibition ratio(%)=[(compound+rhIGF-1)−(rhIGF-1)]÷[(no addition)−(rhIGF-1)]×100

Compound | activity at 1 µM (rat mixed glial culture) [%] | Inhibition of Akt degradation (%) (Akt protein) | Increase Ratio of the Absorbance (% control) (rat mixed glial culture)
COc1ccc(N2CCN(c3c(C)c(C)c4c(c3C)CC(C)(C)O4)CC2)c(OC)c1 [Example 1, 1-(2,4-Dimethoxyphenyl)-4-(2,2,4,6,7-pentamethyl-2,3-dihydro-1-benzofuran-5-yl)piperazine] | 407 | 73.3 | –
COc1ccc(N2CCN(c3c(C)c(C)c4c(c3C)CC(C)O4)CC2)cc1 (stereo not drawn) [Example 20, 1-(4-Methoxyphenyl)-4-[2,4,6,7-tetramethyl-2,3-dihydro-1-benzofuran-5-yl]piperazine] | 187 | 73.9 | –
COc1ccc(N2CCN(c3c(C)c(C)c4c(c3C)C[C@@H](C)O4)CC2)cc1 [Example 21, 1-(4-Methoxyphenyl)-4-[(2R)-2,4,6,7-tetramethyl-2,3-dihydro-1-benzofuran-5-yl]piperazine] | 212 | 121.3 | –
COc1c(C)c(N2CCN(c3ccc(C)cc3)CC2)c(C)c2c1OC(C)(C)C2 [Example 62, 1-(7-Methoxy-2,2,4,6-tetramethyl-2,3-dihydro-1-benzofuran-5-yl)-4-(4-methylphenyl)piperazine] | > 500 | – | –
CCOc1ccc(N2CCN(c3c(C)c4c(c(OC)c3C)OC(C)(C)C4)CC2)cc1 [Example 65, 1-(4-Ethoxyphenyl)-4-(7-methoxy-2,2,4,6-tetramethyl-2,3-dihydro-1-benzofuran-5-yl)piperazine] | > 500 | 121.0 | –
Cc1c(C)c(N2CCN(c3nc(-c4ccccc4)ns3)CC2)c(C)c2c1OC(C)(C)C2 [Example 87, 1-(2,2,4,6,7-Pentamethyl-2,3-dihydro-1-benzofuran-5-yl)-4-(3-phenyl-1,2,4-thiadiazol-5-yl)piperazine] | 256 | – | –
Cc1c(C)c(N2CCN(c3ccc(C#N)cc3)CC2)c(C)c2c1OC(C)(C)C2 [Example 90, 4-[4-(2,2,4,6,7-Pentamethyl-2,3-dihydro-1-benzofuran-5-yl)piperazin-1-yl]benzonitrile] | > 500 | – | –
Cc1c(C)c(N2CCN(c3ccc(S(C)(=O)=O)cc3)CC2)c(C)c2c1OC(C)(C)C2 [Example 92, 1-[4-(Methylsulfonyl)phenyl]-4-(2,2,4,6,7-pentamethyl-2,3-dihydro-1-benzofuran-5-yl)piperazine] | 457 | – | –
CC(=O)c1ccc(N2CCN(c3c(C)c(C)c4c(c3C)CC(C)(C)O4)CC2)cc1 [Example 95, 1-{4-[4-(2,2,4,6,7-Pentamethyl-2,3-dihydro-1-benzofuran-5-yl)piperazin-1-yl]phenyl}ethanone] | 405 | – | –
COc1ccc(N2CCN(c3c(C)c(C)c4c(c3C)CC(C)(CO)O4)CC2)cc1 (stereo not drawn) [Example 97, {5-[4-(4-Methoxyphenyl)piperazin-1-yl]-2,4,6,7-tetramethyl-2,3-dihydro-1-benzofuran-2-yl}methanol] | – | – | 439
COCC1(C)Cc2c(C)c(N3CCN(c4ccc(OC)cc4)CC3)c(C)c(C)c2O1 (stereo not drawn) [Example 101, 1-[2-(Methoxymethyl)-2,4,6,7-tetramethyl-2,3-dihydro-1-benzofuran-5-yl]-4-(4-methoxyphenyl)piperazine hydrochloric acid salt] | > 500 | – | –
COc1ccc(N2CCN(c3c(C)c(C)c4c(c3C)CC(C)(CN(C)C)O4)CC2)cc1 (stereo not drawn) [Example 102, 1-{5-[4-(4-Methoxyphenyl)piperazin-1-yl]-2,4,6,7-tetramethyl-2,3-dihydro-1-benzofuran-2-yl}-N,N-dimethylmethaneamine] | 347 | – | –
COc1ccc(N2CCN(c3c(C)c(C)c4c(c3C)CC(C)(CN)O4)CC2)cc1 (stereo not drawn) [Example 108, 1-{5-[4-(4-Methoxyphenyl)piperazin-1-yl]-2,4,6,7-tetramethyl-2,3-dihydro-1-benzofuran-2-yl}methaneamine] | 282 | – | –
COc1ccc(N2CCN(c3c(C)c(C)c4c(c3C)CC(C)(CN3CCCC3)O4)CC2)cc1 (stereo not drawn) [Example 116, 1-(4-Methoxyphenyl)-4-[2,4,6,7-tetramethyl-2-(pyrrolidin-1-ylmethyl)-2,3-dihydro-1-benzofuran-5-yl]piperazine] | 276 | – | –
Cc1nn(C)c(C)c1N1CCN(c2c(C)c(C)c3c(c2C)CC(C)(C)O3)CC1 [Example 117, 1-(2,2,4,6,7-Pentamethyl-2,3-dihydro-1-benzofuran-5-yl)-4-(1,3,5-trimethyl-1H-pyrazole-4-yl)piperazine] | 100 | – | –
COc1ccc(N2CCN(c3c(C)c(C)c4c(c3C)CC(C)(CN3CCC(O)CC3)O4)CC2)cc1 (stereo not drawn) [Example 133, 1-({5-[4-(4-methoxyphenyl)piperazin-1-yl]-2,4,6,7-tetramethyl-2,3-dihydro-1-benzofuran-2-yl}methyl)piperidine-4-ol] | > 500 | – | –
COc1ccc(N2CCN(c3c(C)c(C)c4c(c3C)CC(C)(CNC(C)=O)O4)CC2)cc1 (stereo not drawn) [Example 137, N-({5-[4-(4-methoxyphenyl)piperazin-1-yl]-2,4,6,7-tetramethyl-2,3-dihydro-1-benzofuran-2-yl}methyl)acetamide] | > 500 | – | –
